US9440969B2, “Compounds and methods for kinase modulation, and indications therefor” (PLEXXIKON INC., priority 2009, dated 2016)

Assays:
c-Raf-1 = c-Raf-1 (Homo sapiens, UniProt P04049); test: c-Raf-1 kinase activity assay (AlphaScreen, biotin-MEK1 substrate); settings: 100 μM ATP, 100 nM biotin-MEK1, 45 minutes at room temperature; read-out: Biochemical activity (IC50 μM) c-Raf-1
In short: (§1)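 AlphaScreen detection of phospho-MEK1 uses anti-phospho-MEK1/2 antibody and donor/acceptor beads, incubated 3 h. The kinase step runs 45 min at room temperature with 0.1 ng enzyme, 100 nM biotin-MEK1 and 100 μM ATP in 50 mM HEPES pH 7.0. IC50 is derived from eight compound concentrations.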

CYP3A4(BFC) = CYP3A4(BFC) (Homo sapiens, UniProt P08684); test: CYP3A4 inhibition (substrate BFC); type: in vitro ADME; settings: read-out: Cyp IC50 (μM) 3A4(BFC)
Sequence of CYP3A4(BFC) (P08684 whole entry): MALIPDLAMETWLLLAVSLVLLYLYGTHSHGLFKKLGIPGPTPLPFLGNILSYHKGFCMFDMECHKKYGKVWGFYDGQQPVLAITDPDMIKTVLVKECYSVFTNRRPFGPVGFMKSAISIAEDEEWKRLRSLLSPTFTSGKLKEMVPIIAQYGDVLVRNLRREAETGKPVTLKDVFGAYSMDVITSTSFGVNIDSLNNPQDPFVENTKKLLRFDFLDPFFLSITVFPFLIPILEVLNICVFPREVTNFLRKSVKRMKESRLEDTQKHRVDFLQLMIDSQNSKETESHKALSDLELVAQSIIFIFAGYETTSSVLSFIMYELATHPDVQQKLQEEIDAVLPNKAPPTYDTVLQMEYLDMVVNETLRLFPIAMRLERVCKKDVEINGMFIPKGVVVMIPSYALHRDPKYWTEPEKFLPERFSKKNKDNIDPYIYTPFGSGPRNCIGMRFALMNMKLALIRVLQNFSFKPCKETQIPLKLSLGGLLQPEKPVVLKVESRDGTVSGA
Procedure: (§2) CYP (Cytochrome P450) enzymes are the major drug metabolizing enzymes present in the liver. The inhibition of CYP enzyme activity (IC50) for each of CYP1A2, CYP2C19, CYP2C9, CYP2D6, CYP3A4(BFC) and CYP3A4(BQ) is determined for compounds, where inhibition of metabolism of a known substrate leads to a decrease in the fluorescence of the metabolized product. The fluorescence of the product is monitored as a function of compound concentration. Compounds are dissolved in dimethyl sulfoxide to a concentration of 100 mM. These are diluted […], into 82 μL of acetonitrile. An 11 μL aliquot of this solution is then added to 204 μL of cofactor mix (1.3% NADPH Regeneration system Solution A, 1.04% NADPH Regeneration system Solution B from BD Biosciences, 5% acetonitrile and 0.05% dimethyl sulfoxide). These are then serially diluted 1:1 (160 μL to 160 μL co-factor mix) for a total of 10 points. A 10 μL aliquot of this final mixture is dispensed into 384 well assay plates and incubated for 10 minutes at 37° C. Enzyme and substrate mix (10 μL; 0.5 pmol CYP1A2/5 μM CEC; 1.0 pmol CYP2C9/75 μM MFC; 0.5 pmol CYP2C19/25 μM CEC; 1.5 pmol CYP2D6/1.5 μM AMMC; 1.0 pmol CYP3A4/50 μM BFC; or 1.0 pmol CYP3A4/40 μM BQ) is added to these assay plates. Assay plates are incubated at 37° C. (CYP1A2-15 min; CYP2C9-45 min; CYP2C19, 2D6 and 3A4-30 min) and read in a Tecan Safire 2 plate reader (CYP1A2, 2C19 and 3A4 409 ex/460 em; CYP2C9 and 2D6 409 ex/530 em). The signal versus compound concentration is used to determine the IC50. The enzymes and substrates for this assay are obtained from BD Biosciences.

B-Raf V600E = B-Raf V600E (Homo sapiens, UniProt P15056, V600E); test: B-Raf V600E kinase activity assay (AlphaScreen, biotin-MEK1 substrate); settings: 100 μM ATP, 100 nM biotin-MEK1, 45 minutes at room temperature, read-out: Biochemical activity (IC50 μM) V600E
Sequence of B-Raf V600E (P15056 whole entry V600E): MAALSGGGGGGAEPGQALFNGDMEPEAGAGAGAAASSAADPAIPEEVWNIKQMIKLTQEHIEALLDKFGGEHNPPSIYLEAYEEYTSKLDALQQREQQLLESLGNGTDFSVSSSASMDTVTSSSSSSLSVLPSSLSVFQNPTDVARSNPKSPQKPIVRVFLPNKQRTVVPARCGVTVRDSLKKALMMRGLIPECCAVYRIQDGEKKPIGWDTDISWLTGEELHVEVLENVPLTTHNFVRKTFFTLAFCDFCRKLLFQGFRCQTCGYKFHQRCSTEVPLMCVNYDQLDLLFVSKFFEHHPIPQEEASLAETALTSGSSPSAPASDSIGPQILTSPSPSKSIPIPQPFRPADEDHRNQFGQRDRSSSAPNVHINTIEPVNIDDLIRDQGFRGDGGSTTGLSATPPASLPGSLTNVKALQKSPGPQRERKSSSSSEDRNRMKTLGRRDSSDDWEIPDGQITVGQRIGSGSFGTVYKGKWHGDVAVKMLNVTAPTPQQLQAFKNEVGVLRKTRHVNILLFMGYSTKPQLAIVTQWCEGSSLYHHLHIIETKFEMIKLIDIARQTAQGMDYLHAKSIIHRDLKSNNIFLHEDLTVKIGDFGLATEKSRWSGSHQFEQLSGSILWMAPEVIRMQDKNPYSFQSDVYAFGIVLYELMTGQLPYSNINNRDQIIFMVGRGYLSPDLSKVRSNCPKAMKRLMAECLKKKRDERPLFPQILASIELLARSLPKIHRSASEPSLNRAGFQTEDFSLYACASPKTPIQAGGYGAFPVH
In short: as §1

CYP2C9 = CYP2C9 (Homo sapiens, UniProt P11712); test: CYP2C9 inhibition (fluorescent substrate MFC); type: in vitro ADME; settings: read-out: Cyp IC50 (μM) 2C9
Sequence of CYP2C9 (P11712 whole entry): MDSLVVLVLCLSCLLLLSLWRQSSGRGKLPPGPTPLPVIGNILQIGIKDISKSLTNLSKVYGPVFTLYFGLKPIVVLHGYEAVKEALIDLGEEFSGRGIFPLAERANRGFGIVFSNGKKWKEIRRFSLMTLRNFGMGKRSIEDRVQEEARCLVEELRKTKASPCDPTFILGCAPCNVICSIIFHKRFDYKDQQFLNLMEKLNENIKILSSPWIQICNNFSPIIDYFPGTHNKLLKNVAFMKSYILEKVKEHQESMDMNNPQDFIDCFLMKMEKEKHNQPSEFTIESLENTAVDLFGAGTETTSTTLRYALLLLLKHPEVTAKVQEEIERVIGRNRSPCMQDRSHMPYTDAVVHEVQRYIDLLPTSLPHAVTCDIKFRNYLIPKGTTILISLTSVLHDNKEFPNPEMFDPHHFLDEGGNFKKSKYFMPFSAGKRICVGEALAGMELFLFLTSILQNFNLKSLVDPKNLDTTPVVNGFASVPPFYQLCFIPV
Procedure: as §2

B-Raf = B-Raf (Homo sapiens, UniProt P15056); test: B-Raf kinase activity assay (AlphaScreen, biotin-MEK1 substrate); settings: 100 μM ATP, 100 nM biotin-MEK1, 45 minutes at room temperature; read-out: Biochemical activity (IC50 μM) B-Raf
Sequence of B-Raf (P15056 whole entry): as the sequence (P15056 whole entry V600E) above, with E600V counted along it
In short: as §1

CYP2D6 = CYP2D6 (Homo sapiens, UniProt P10635); test: CYP2D6 inhibition (fluorescent substrate AMMC); type: in vitro ADME; settings: read-out: Cyp IC50 (μM) 2D6
Sequence of CYP2D6 (P10635 whole entry): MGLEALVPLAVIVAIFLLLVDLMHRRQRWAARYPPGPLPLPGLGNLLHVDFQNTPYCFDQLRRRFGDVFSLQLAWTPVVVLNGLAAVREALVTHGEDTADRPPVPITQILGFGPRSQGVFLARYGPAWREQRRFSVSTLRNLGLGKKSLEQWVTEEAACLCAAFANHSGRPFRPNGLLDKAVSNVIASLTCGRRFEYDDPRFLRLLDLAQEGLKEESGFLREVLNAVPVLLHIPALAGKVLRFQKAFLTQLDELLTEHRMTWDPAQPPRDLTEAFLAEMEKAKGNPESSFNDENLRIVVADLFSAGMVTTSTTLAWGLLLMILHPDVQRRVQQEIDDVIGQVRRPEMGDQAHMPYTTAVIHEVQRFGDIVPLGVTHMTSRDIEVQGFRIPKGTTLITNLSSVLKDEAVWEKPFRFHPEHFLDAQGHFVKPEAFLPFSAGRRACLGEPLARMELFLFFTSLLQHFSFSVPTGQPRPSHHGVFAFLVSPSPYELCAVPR
Procedure: as §2

CYP1A2 = target: T1, CYP1A2 (Homo sapiens, UniProt P05177); test: CYP1A2 inhibition (fluorescent substrate CEC); type: in vitro ADME; settings: read-out: Cyp IC50 (μM) 1A2
T1 sequence (P05177 1-516): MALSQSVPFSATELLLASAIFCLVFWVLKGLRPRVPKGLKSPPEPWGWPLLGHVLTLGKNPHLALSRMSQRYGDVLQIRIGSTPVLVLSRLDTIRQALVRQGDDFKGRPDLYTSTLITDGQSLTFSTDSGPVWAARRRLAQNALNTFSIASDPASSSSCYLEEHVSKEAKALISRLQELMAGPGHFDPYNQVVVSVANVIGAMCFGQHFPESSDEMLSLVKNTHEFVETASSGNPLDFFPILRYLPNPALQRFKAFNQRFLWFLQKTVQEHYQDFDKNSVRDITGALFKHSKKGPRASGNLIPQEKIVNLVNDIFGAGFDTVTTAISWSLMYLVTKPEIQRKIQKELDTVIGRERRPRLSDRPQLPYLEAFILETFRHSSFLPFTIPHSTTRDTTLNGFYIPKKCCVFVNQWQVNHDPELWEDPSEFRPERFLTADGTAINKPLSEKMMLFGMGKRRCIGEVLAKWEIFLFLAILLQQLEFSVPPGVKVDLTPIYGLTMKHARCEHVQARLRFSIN
Procedure: as §2

CYP2C19 = CYP2C19 (Homo sapiens, UniProt P33261); test: CYP2C19 inhibition (fluorescent substrate CEC); type: in vitro ADME; settings: read-out: Cyp IC50 (μM) 2C19
Sequence of CYP2C19 (P33261 whole entry): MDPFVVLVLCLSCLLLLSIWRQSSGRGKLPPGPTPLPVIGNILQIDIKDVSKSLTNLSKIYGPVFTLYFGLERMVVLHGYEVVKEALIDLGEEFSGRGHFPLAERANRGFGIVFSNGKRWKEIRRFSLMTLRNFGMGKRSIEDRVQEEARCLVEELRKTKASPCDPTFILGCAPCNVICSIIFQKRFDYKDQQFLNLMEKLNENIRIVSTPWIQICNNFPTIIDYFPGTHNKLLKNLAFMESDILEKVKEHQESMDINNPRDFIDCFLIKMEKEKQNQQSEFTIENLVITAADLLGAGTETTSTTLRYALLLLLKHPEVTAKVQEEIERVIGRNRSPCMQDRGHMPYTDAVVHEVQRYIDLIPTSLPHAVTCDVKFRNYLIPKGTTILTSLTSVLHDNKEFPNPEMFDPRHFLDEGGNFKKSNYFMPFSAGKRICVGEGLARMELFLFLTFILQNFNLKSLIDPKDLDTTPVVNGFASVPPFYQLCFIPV
Procedure: as §2

Sequence of c-Raf-1 (P04049 whole entry Y340D/Y341D, form open): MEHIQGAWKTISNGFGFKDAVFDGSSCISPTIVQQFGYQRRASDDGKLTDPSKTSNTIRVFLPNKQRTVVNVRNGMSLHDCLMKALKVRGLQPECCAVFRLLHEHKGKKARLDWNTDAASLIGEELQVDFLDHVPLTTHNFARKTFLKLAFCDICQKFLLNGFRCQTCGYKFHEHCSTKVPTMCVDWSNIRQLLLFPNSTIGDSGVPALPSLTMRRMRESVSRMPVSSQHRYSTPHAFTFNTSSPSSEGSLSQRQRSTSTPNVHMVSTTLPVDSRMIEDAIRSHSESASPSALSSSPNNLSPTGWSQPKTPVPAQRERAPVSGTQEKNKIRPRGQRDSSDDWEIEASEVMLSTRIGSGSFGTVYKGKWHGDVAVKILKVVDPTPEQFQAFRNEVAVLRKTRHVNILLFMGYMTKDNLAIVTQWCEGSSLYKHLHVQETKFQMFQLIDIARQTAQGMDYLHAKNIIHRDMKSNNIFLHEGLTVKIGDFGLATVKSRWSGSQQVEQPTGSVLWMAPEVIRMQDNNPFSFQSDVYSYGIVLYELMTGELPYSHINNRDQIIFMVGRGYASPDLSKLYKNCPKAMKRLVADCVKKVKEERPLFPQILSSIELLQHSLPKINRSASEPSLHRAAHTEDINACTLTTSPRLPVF

| Structure (SMILES) | IC50 (c-Raf-1) [µM] | IC50 (CYP3A4(BFC)) [µM] | IC50 (B-Raf V600E) [µM] | IC50 (CYP2C9) [µM] | IC50 (B-Raf) [µM] | IC50 (CYP2D6) [µM] | IC50 (CYP1A2) [µM] | IC50 (CYP2C19) [µM] |
| --- | --- | --- | --- | --- | --- | --- | --- | --- |
| CCCS(=O)(=O)Nc1ccc(F)c(C(=O)c2c[nH]c3ncc(-c4ccc5[nH]ccc5c4)cc23)c1F [P-0012, Propane-1-sulfonic acid {2,4-difluoro-3-[5-(1H-indol-5-yl)-1H-pyrrolo[2,3-b]pyridine-3-carbonyl]-phenyl}-amide] | < 0.1 | 5 to 10 | < 0.1 | 5 to 10 | < 0.1 | > 10 | > 10 | < 5 |
| CC(=O)n1ncc2cc(-c3cnc4[nH]cc(C(=O)c5c(F)ccc(NS(=O)(=O)c6cc(F)ccc6F)c5F)c4c3)ccc21 [P-0005, N-{3-[5-(1-Acetyl-1H-indazol-5-yl)-1H-pyrrolo[2,3-b]pyridine-3-carbonyl]-2,4-difluoro-phenyl}-2,5-difluoro-benzenesulfonamide] | < 0.1 | > 10 | < 0.1 | < 5 | < 0.1 | > 10 | > 10 | < 5 |
| CCCS(=O)(=O)Nc1ccc(F)c(C(=O)c2c[nH]c3ncc(-c4ccc5c(cnn5C(C)=O)c4)cc23)c1F [P-0007, propane-1-sulfonic acid {3-[5-(1-acetyl-1H-indazol-5-yl)-1H-pyrrolo[2,3-b]pyridine-3-carbonyl]-2,4-difluoro-phenyl}-amide] | ~0.1 | > 10 | < 0.1 | < 5 | < 0.1 | > 10 | < 5 | < 5 |
| Cc1ncc(-c2cnc3[nH]cc(C(=O)c4c(F)ccc(NS(=O)(=O)c5cc(F)ccc5F)c4F)c3c2)cn1 [P-1503, N-{2,4-Difluoro-3-[5-(2-methyl-pyrimidin-5-yl)-1H-pyrrolo[2,3-b]pyridine-3-carbonyl]-phenyl}-2,5-difluoro-benzenesulfonamide] | < 0.1 | > 10 | < 0.1 | > 10 | < 0.1 | > 10 | > 10 | > 10 |
| CCCS(=O)(=O)Nc1ccc(F)c(C(=O)c2c[nH]c3ncc(-c4ccc5c(cnn5S(C)(=O)=O)c4)cc23)c1F [P-0016, propane-1-sulfonic acid {2,4-difluoro-3-[5-(1-methanesulfonyl-1H-indazol-5-yl)-1H-pyrrolo[2,3-b]pyridine-3-carbonyl]-phenyl}-amide] | < 0.1 | > 10 | < 0.1 | > 10 | < 0.1 | > 10 | > 10 | > 10 |
| O=C(c1c(F)ccc(NS(=O)(=O)c2ccc(C(F)(F)F)cc2)c1F)c1c[nH]c2ncc(-c3cnn(C4CCNCC4)c3)cc12 [P-1004, N-{2,4-Difluoro-3-[5-(1-piperidin-4-yl-1H-pyrazol-4-yl)-1H-pyrrolo[2,3-b]pyridine-3-carbonyl]-phenyl}-4-trifluoromethyl-benzenesulfonamide] | < 0.1 | 5 to 10 | < 0.1 | > 10 | < 0.1 | > 10 | > 10 | > 10 |
| CNC(=O)n1ncc2cc(-c3cnc4[nH]cc(C(=O)c5c(F)ccc(NS(=O)(=O)c6cc(F)ccc6F)c5F)c4c3)ccc21 [P-0003, 5-{3-[3-(2,5-Difluoro-benzenesulfonylamino)-2,6-difluoro-benzoyl]-1H-pyrrolo[2,3-b]pyridin-5-yl}-indazole-1-carboxylic acid methylamide] | < 0.1 | > 10 | < 0.1 | < 5 | < 0.1 | > 10 | > 10 | < 5 |

Now from value to molecule:

| IC50 (c-Raf-1) [µM] | IC50 (CYP3A4(BFC)) [µM] | IC50 (B-Raf V600E) [µM] | IC50 (CYP2C9) [µM] | IC50 (B-Raf) [µM] | IC50 (CYP2D6) [µM] | IC50 (CYP1A2) [µM] | IC50 (CYP2C19) [µM] | Structure (SMILES) |
| --- | --- | --- | --- | --- | --- | --- | --- | --- |
| < 0.1 | > 10 | < 0.1 | > 10 | < 0.1 | > 10 | > 10 | < 5 | CCCS(=O)(=O)Nc1ccc(F)c(C(=O)c2c[nH]c3ncc(-c4ccc5[nH]cc(C)c5c4)cc23)c1F [P-0023, Propane-1-sulfonic acid {2,4-difluoro-3-[5-(3-methyl-1H-indol-5-yl)-1H-pyrrolo[2,3-b]pyridine-3-carbonyl]-phenyl}-amide] |
| < 0.1 | > 10 | < 0.1 | 5 to 10 | < 0.1 | > 10 | > 10 | > 10 | Cc1ccc(-c2cnc3[nH]cc(C(=O)c4c(F)ccc(NS(=O)(=O)c5cc(F)ccc5F)c4F)c3c2)cn1 [P-1408, N-{2,4-Difluoro-3-[5-(6-methyl-pyridin-3-yl)-1H-pyrrolo[2,3-b]pyridine-3-carbonyl]-phenyl}-2,5-difluoro-benzenesulfonamide] |
| < 0.1 | > 10 | < 0.1 | < 5 | < 0.1 | > 10 | 5 to 10 | 5 to 10 | CC(=O)N(c1ccc(F)c(C(=O)c2cn(C(C)=O)c3ncc(-c4ccc5c(cnn5C(C)=O)c4)cc23)c1F)S(=O)(=O)c1cc(F)ccc1F [P-0006, N-Acetyl-N-{3-[1-acetyl-5-(1-acetyl-1H-indazol-5-yl)-1H-pyrrolo[2,3-b]pyridine-3-carbonyl]-2,4-difluoro-phenyl}-2,5-difluoro-benzenesulfonamide] |
| < 0.1 |  | < 0.1 | < 5 | < 0.1 | > 10 | > 10 | 5 to 10 | O=C(c1c(F)ccc(NS(=O)(=O)c2cc(F)ccc2F)c1F)c1c[nH]c2ncc(-c3ccc4[nH]ncc4c3)cc12 [P-0002, N-{2,4-Difluoro-3-[5-(1H-indazol-5-yl)-1H-pyrrolo[2,3-b]pyridine-3-carbonyl]-phenyl}-2,5-difluoro-benzenesulfonamide] |
| < 0.1 | > 10 | < 0.1 | 5 to 10 | < 0.1 | > 10 | < 5 | > 10 | CCCS(=O)(=O)Nc1ccc(F)c(C(=O)c2c[nH]c3ncc(-c4ccc5cn(C)nc5c4)cc23)c1F [P-0011, Propane-1-sulfonic acid {2,4-difluoro-3-[5-(2-methyl-2H-indazol-6-yl)-1H-pyrrolo[2,3-b]pyridine-3-carbonyl]-phenyl}-amide] |
| < 0.1 | > 10 | < 0.1 | 5 to 10 | < 0.1 | > 10 | > 10 | > 10 | CCCS(=O)(=O)Nc1ccc(F)c(C(=O)c2c[nH]c3ncc(-c4cccc5nn(C)cc45)cc23)c1F [P-0015, Propane-1-sulfonic acid {2,4-difluoro-3-[5-(2-methyl-2H-indazol-4-yl)-1H-pyrrolo[2,3-b]pyridine-3-carbonyl]-phenyl}-amide] |
